The conditions of assay [1]: background statement; cited from earlier work.
The target of assay [2] is T1, α4β2 nAChR (Homo sapiens, UniProt P17787+P43681). To be noted: read-out: EC50 (partial agonist at α4β2 nAChR); reported in the literature; cited from earlier work.
For assay [3], the target named is T2, α4β2 nAChR (Rattus norvegicus, UniProt P09483+P12390).
T2 construct: expressed in transfected cells
Description: Competition binding with [3H]epibatidine, membrane homogenates of stably transfected cells. The settings on record: Ki α3β4 divided by Ki α4β2.

For assay [4], the target named is T1, α4β2 nAChR. The settings on record: read-out: Ki (binding affinity); reported in the literature; cited from earlier work.
Assay [5] has as its target rat α3β4 nAChRs (KXα3β4R2 cells) (Rattus norvegicus, UniProt P04757+P12392). Description: cell-based. The settings on record: read-out: Relative Emax (% of nicotine Emax) α3β4 nAChR's.
Another assay addresses T3, α4β2 nAChR's (Homo sapiens, UniProt P17787+P43681).
T3 construct: expressed in transfected cells
Description: 86Rb+ efflux assay, agonist activity. The settings on record: read-out: Relative Emax (% of nicotine Emax) α4β2 nAChR's; 86Rb+ efflux; mean ± standard error of three experiments. It is filed as cell-based.

Each structure is given as a SMILES string.

With `Clc1ccc(C2CC3CCC2N3)cn1` (racemic) [(±)-Epibatidine], in assay [1], the Analgesic potency entry is reported as “approximately 500 times that of morphine”.
The EC50 is the concentration at which the effect is half-maximal. What is called Ki is a dissociation constant, usually derived from enzyme kinetics or from competition with a known ligand. Take `O=c1cccc2n1C[C@@H]1CNC[C@H]2C1` [(−)-Cytisine (4), (−)-Cytisine]: on α4β2 nAChR [2], the EC50 is ~1000 nM. The “Affinity ratio (α3β4/α4β2)” value at α4β2 nAChR [3] is given as 144. Besides, the Ki at α4β2 nAChR [4] was ~1 nM.
For orientation: Emax means the maximal effect, on the per cent scale that the assay sets. For `CN1CCCC1c1cccnc1` (single isomer, unassigned; (-)) [(−)-Nicotine, reference compound], the Emax (in assay [5]; at α4β2 nAChR's) was 100% in each case.

Source of the values: patent US20100048606A1, “10-Substituted Cytisine Derivatives and Methods of Use Thereof” (Georgetown University Office of Technology Commercialization, priority 2006, published 2010).
